The results in this text go back to patent US7645463B2, “Method for treating diabetic vascular complications” (National Yang-Ming University, priority 2006, dated 2010).

Marks after values point to notes of the source that are not given here.

For this experiment, the system named is Mouse Kupffer cell. Nature of the experiment: Phagocytosis assay of Kupffer cell (FITC-beads ingestion). In kind it is cell-based. To be noted: relative to control (2% FCS) = 1. The protocol: C57BL6/j mice were intraperitoneally (ip) injected with a mixture of Rompun® xylazine anesthesia and ketamin (S-(+)-ketamine) anesthesia mixed at a ratio of 1:3. The central vein of each mouse was cannulated with a polyethylene catheter, and the liver tissue was perfused with 10 ml Ca^2+-free HBSS buffer for 10 minutes at a perfusion rate of 1 ml/min, and HBSS buffer containing 0.05% collagenase type IV for 10 minutes at the perfusion rate of 1 mL/min to soften the liver tissue. The softened liver tissue was excised, rinsed and cut open by a pair of forceps to release cell suspension from the liver tissue. After the connective tissue was detached, the cell suspension was filtered with a #53 nylon mesh and centrifuged at 30 g for 3 minutes. The cell suspension was then centrifuged at 600 g for 5 minutes. The supernatant was discarded and the cell pellet was resuspended in 15 mL RBC lysis buffer and allowed a reaction to take place for 2 minutes. The cell suspension was added with 15 mL of RPMI 1640 medium and centrifuged, and the cell pellet was resuspended in 5 mL of RPMI 1640 medium and layered on top of a Percoll™ solution consisting of 25% (v/v) Percoll™ density gradient medium. The cell solution was centrifuged, and the cell pellet containing enriched Kupffer cells was collected. The enriched Kupffer cells were washed with RPMI 1640 medium and resuspended in serum-free RPMI 1640 medium.
Kupffer cells were seeded (4×10^5 cells/well) in a 96-well culture plate and cultured in RPMI medium supplemented with 10% FCS, also known as 10% FCS RPMI medium hereinafter, for at least 24 hours. The medium was changed to 2% FCS RPMI medium added with PH of different concentrations (1000 μg/mL, 100 μg/mL, 10 μg/mL and 1 μg/mL). […] FluoroQuench™ dye (0.5 μL/well) was added to quench the fluorescence from the […] 1 μm-sized FITC-beads. The fluorescence of the ingested 1 μm-sized FITC-beads was measured with a cytofluorometer after one hour and normalized with the fluorescence of the control group to determine the relative phagocytosis index as shown in Table 2.

In the case of tuftsin, the “Mouse Kupffer cell Ingestion phagocytosis Index” value reads like this: (1 μg/ml) 1.49**; (10 μg/ml) 1.2*; (100 μg/ml) 1.01.
